Results published in US20030144336A1, “Method of selecting nonsedating H1-antagonists” (priority 2001, published 2003).
Read-outs that look alike come from different tables or passages of the source. Each block holds one compound with its values, some of them ahead of it.

Legend:
in vivo = conditions: male, mouse, iv, 5 mg/kg
P-gp (mdr1a/1b) [1] = target: T1, P-gp (mdr1a/1b) (Mus musculus, UniProt P21447); conditions: male, FVB and mdr1a/1b KO, in vivo
P-gp (mdr1a/1b) [2] = target: T1, P-gp (mdr1a/1b); assay: in vivo; conditions: male, iv, 5 mg/kg
[3] = Blood-brain distribution of H1-antagonists in WT mice and mdr1a/1b KO mice; conditions: male, FVB, mouse, brain, iv, 5 mg/kg
P-gp (mdr1a/1b) [4] = target: T1, P-gp (mdr1a/1b); assay: as above; conditions: WT and KO mice, post i.v. dose
MDR1 (P-gp) [5] = target: T2, MDR1 (P-gp) (Homo sapiens, UniProt P08183); assay: in vitro; conditions: MDCK-MDR1
T2 sequence (P08183 whole entry): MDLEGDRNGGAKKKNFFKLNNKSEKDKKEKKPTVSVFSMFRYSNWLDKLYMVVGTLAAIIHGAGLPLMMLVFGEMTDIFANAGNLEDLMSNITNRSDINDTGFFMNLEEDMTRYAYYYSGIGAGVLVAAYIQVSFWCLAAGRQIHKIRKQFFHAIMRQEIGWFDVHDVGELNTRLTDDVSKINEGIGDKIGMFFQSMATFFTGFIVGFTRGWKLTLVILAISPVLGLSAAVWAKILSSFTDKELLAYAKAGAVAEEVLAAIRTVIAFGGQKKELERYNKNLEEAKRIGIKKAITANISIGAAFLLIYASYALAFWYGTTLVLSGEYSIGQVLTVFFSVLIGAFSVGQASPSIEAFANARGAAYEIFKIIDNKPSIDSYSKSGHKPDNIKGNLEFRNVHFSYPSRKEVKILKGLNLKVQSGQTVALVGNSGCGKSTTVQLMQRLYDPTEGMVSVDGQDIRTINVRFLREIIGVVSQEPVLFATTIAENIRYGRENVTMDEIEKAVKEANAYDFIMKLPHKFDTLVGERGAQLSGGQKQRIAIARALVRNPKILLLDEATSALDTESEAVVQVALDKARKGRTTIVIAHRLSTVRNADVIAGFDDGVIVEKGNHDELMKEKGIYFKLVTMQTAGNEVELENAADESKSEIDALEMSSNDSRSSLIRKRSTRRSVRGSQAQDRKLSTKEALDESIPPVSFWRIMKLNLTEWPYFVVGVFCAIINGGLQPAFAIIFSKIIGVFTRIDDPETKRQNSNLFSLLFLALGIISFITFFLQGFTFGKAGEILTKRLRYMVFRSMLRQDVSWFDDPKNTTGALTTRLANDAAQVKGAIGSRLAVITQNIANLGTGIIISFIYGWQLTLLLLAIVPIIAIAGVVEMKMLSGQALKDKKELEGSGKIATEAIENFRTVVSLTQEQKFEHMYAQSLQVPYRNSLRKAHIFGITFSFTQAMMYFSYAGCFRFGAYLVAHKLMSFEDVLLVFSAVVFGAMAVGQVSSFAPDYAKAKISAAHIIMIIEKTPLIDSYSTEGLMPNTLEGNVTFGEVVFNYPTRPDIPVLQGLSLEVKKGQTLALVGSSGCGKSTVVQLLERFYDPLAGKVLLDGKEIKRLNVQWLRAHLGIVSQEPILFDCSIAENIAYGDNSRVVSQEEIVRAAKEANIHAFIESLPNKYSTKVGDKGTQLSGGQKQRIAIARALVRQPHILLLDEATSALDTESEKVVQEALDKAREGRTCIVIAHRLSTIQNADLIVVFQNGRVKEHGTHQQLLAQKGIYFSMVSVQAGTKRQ

MDR1 (P-gp) [6] = target: T2, MDR1 (P-gp)
P-gp = conditions: literature reports; cited from earlier work

T1 sequence (P21447 whole entry): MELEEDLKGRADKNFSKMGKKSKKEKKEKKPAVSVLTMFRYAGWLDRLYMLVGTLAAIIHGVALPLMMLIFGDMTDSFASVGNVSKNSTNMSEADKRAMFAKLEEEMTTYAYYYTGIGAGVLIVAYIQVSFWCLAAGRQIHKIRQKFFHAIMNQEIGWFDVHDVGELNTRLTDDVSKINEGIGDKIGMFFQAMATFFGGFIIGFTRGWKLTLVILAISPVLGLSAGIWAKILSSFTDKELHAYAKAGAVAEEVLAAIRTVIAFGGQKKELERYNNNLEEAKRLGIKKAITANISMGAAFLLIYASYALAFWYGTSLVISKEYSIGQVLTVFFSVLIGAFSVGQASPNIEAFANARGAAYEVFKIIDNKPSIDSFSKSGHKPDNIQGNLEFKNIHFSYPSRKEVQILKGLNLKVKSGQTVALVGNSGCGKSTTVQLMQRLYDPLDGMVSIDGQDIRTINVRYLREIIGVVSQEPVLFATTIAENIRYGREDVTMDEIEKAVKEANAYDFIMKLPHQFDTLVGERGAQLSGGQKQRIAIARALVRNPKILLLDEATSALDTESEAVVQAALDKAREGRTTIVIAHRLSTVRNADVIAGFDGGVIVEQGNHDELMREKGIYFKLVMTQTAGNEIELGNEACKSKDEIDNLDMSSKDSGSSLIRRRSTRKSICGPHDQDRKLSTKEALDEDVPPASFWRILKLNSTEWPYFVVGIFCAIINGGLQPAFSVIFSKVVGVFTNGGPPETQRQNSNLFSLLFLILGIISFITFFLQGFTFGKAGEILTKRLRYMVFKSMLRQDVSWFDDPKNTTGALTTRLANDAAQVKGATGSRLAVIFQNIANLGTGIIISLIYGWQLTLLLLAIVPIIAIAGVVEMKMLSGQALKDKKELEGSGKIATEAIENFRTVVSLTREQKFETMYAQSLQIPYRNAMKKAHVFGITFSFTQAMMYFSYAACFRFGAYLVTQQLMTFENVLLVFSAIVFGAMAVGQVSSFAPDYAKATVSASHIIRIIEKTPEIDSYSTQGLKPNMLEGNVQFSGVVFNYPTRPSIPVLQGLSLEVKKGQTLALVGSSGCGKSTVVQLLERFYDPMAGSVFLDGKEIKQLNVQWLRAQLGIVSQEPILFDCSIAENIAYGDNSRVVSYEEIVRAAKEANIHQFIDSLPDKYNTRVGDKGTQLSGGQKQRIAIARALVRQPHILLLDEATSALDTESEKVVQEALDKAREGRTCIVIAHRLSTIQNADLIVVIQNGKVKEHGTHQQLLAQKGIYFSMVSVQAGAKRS

Vd (in vivo; FVB and mdr1a/1b KO, plasma): 2.4 to 3.7 L/kg
clearance (in vivo; FVB and mdr1a/1b KO, plasma): 70 to 80 mL/min/kg
Vd (in vivo; FVB, plasma): 3.7 L/kg
clearance (in vivo; FVB, plasma): 80 mL/min/kg
half-life (in vivo; FVB, plasma): 1.7 h
Vd (in vivo; mdr1a/1b KO, plasma): 2.4 L/kg
clearance (in vivo; mdr1a/1b KO, plasma): 70 mL/min/kg
half-life (in vivo; mdr1a/1b KO, plasma): 2.2 h
AUC ratio of brain tissue to plasma (WT vs. KO comparison) (P-gp (mdr1a/1b) [1]): approximately 1
Kp (P-gp (mdr1a/1b) [2]; FVB and mdr1a/1b KO): 1.2
Kp (P-gp (mdr1a/1b) [2]; FVB): 3.8
Kp (P-gp (mdr1a/1b) [2]; mdr1a/1b KO): 4.8
concentration at 2 min [3]: ~8000 ng/mL
time of peak brain tissue concentration (P-gp (mdr1a/1b) [4]): 2 min
SMILES: OCCOCCN1CCN(C(c2ccccc2)c2ccc(Cl)cc2)CC1 (stereo not drawn) [Hydroxyzine]

Vd (in vivo; FVB and mdr1a/1b KO, in vivo): ~2 L/kg
clearance (in vivo; FVB and mdr1a/1b KO, in vivo): 119 to 134 mL/min/kg
Vd (in vivo; FVB, in vivo): 2 L/kg
clearance (in vivo; FVB, in vivo): 119 mL/min/kg
half-life (in vivo; FVB, in vivo): 0.3 h
Vd (in vivo; mdr1a/1b KO, in vivo): 2.3 L/kg
clearance (in vivo; mdr1a/1b KO, in vivo): 134 mL/min/kg
half-life (in vivo; mdr1a/1b KO, in vivo): 0.5 h
Papp A→B at 5 hr, 2 μM (MDR1 (P-gp) [5]; dog): 25.9 ×10⁻⁶ cm/s
Papp B→A at 5 hr, 2 μM (MDR1 (P-gp) [5]; dog): 24.5 ×10⁻⁶ cm/s
efflux ratio at 5 hr, 2 μM (MDR1 (P-gp) [5]; human): 0.9
AUC ratio of brain tissue to plasma (WT vs. KO comparison) (P-gp (mdr1a/1b) [1]): approximately 1
time of peak brain tissue concentration (P-gp (mdr1a/1b) [1]; iv): 2 min
Kp (P-gp (mdr1a/1b) [2]; FVB and mdr1a/1b KO): 0.6
Kp (P-gp (mdr1a/1b) [2]; FVB): 6.2
Kp (P-gp (mdr1a/1b) [2]; mdr1a/1b KO): 3.5
MDR1 Substrate? (MDR1 (P-gp) [6]; MDCK-MDR1): No
MDR1 Substrate? (MDR1 (P-gp) [6]; human, MDCK-MDR1, 5 h, 2 µM): not MDR1 substrates
SMILES: Cc1ccc(/C(=C\CN2CCCC2)c2ccccn2)cc1 [Triprolidine]

SMILES: CC(C)(C)c1ccc(C(O)CCCN2CCC(C(O)(c3ccccc3)c3ccccc3)CC2)cc1 (stereo not drawn) [terfenadine]
P-gp substrate or inhibitor status (P-gp): an inhibitor of and a substrate for P-gp in vitro
